The target in test [1] is T1, Inactive N-terminal His6 tagged murine P38 (Mus musculus, UniProt P47811).
T1 construct: His6 (N); made in house
Put plainly: p38 cascade assay (HTRF; inactive p38 activated by MKK-6, ATF-2 phosphorylation). Type of test: biochemical. As to conditions: inactive p38 preincubated with compound, then MKK-6, ATF-2, ATP; read-out: 50% inhibition in the p38 cascade assay at concentrations within the range. The method, then: The homogeneous time resolved fluorescence method (HTRF) assay measured the phosphorylation of human activating transcription factor (ATF)-2 protein by P38 following activation by MKK-6 and was run in A384 well plate format. […] MBP-tagged mouse MKK-6 (final concentration 50 nM), GST-tagged ATF-2 (fmal concentration 200 nM) and ATP (final concentration 50 μM) were then added and the incubation continued for 90 min. p38, MKK-6 and ATF-2 were prepared in the Protein Production Group, Aventis Pharmaceuticals. XL665 labeled anti-GST antibody (Cis Bio International) and cryptate labeled anti-pbospho-ATF2 antibody (Cis Bio International) were then added to generate the specific signal proportional to the phosphorylation of the substrate. The close proximity of XL665 labeled anti-GST antibody/phosphorylated GST-ATF2 complex and the cryptate labeled anti-phospho-ATF2 antibody results in a fluorescence transfer from cryptate to XL665. The resulting fluorescence signal was than read on a LJL Acquest set at multi-method mode using a fluorescence filter set (E=360 nm, Em=615/665 nm) with UV dichroic mirror (Integration time: 300000 μs). The results are reported as IC50 values. Compounds were tested over the concentration range of 3×10^−10M to 3×10^−5M.
(Time-resolved FRET reads energy transfer from a long-lived donor to a nearby acceptor.)

Test [2] deals with TNF-alpha release in THP-1 cells. Put plainly: LPS-induced TNF-alpha release in THP-1 cells. As to conditions: Homo sapiens, THP-1, LPS-stimulated THP-1 cells; read-out: 50% inhibition in the LPS-induced TNF-alpha release in THP-1 cells assay at concentrations within the range. The test is classed as cell-based. Summed up: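 TNF-alpha in supernatants was quantified by sandwich ELISA against a log/log recombinant standard curve (0.125-16 ng/ml). Before this, THP-1 cells (1×10^6 cells/ml, serum-reduced) received compound at 1×10^−9 to 1×10^−6 M in 0.3% DMSO for 1 h, then LPS 20 μg/ml for 18 h.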

Each structure is given as a SMILES string.

T1 sequence (P47811 whole entry): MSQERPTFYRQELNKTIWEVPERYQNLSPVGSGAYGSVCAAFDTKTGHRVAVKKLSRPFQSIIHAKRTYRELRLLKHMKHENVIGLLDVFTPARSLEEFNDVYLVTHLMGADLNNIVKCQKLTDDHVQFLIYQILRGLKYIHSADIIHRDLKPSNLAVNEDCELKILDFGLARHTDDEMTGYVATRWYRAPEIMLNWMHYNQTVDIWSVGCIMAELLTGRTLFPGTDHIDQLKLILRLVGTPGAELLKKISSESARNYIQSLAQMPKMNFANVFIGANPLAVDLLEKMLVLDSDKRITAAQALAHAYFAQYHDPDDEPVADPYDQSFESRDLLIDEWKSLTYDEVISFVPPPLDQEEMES

Turning to `CC(=O)N1CCC(Cc2ccc(NC(=O)Nc3cc(C(C)(C)C)nn3-c3ccc(C)cc3)cc2)CC1` [Compound A1637, 1-[4-(1-acetyl-piperidin-4-ylmethyl)-phenyl]-3-(5-tert-butyl-2-p-tolyl-2H-pyrazol-3-yl)-urea], the IC50 in test [1] lay in the range of 10 to 100 nM. `Cc1ccc(-n2nc(C(C)(C)C)cc2NC(=O)Nc2ccc(CC3CCN(C(=O)c4coc5c4C(=O)CCC5)CC3)cc2)cc1` [Compound A342, 1-(5-tert-Butyl-2-p-tolyl-2H-pyrazol-3-yl)-3-{4-[1-(4-oxo-4,5,6,7-tetrahydro-benzofuran-3-carbonyl)-piperidin-4-ylmethyl]-phenyl}-urea]: the IC50 in test [1] is 10 to 100 nM.

For `Cc1ccc(-n2nc(C(C)(C)C)cc2NC(=O)Nc2ccc(CC3CCN(C(=O)O[C@@H]4C[C@H](C)CC[C@H]4C(C)C)CC3)cc2)cc1` [Compound A1644, 4-{4-[3-(5-tert-Butyl-2-p-tolyl-2H-pyrazol-3-yl)-ureido]-benzyl}-piperidin-1-carboxylic acid (1R,2S,5R)-2-isopropyl-5-methyl-cyclohexyl ester], the IC50 in test [1] is 10 to 100 nM. As for `Cc1ccc(-n2nc(C(C)(C)C)cc2NC(=O)Nc2cccc(CC3CC4CCC(C3)N4S(=O)(=O)c3ccc4c(c3)OCCN4C)c2)cc1` (centres unmarked) [Compound A880, 1-(5-tert-Butyl-2-p-tolyl-2H-pyrazol-3-yl)-3-{3-[8-(4-methyl-3,4-dihydro-2H-benzo[1,4]oxazine-7-sulfonyl)-8-aza-bicyclo[3.2.1]oct-3-ylmethyl]-phenyl}-urea], the IC50 in test [1] was 10 to 100 nM. With `Cc1ccc(-n2nc(C(C)(C)C)cc2NC(=O)Nc2cccc(CC3CCN(C(=O)c4cc5ccccc5o4)CC3)c2)cc1` [Compound A1638, 1-{3-[1-(benzofuran-2-carbonyl)-piperidin-4-ylmethyl]-phenyl}-3-(5-tert-butyl-2-p-tolyl-2H-pyrazol-3-yl)-urea], the IC50 in test [1] is 10 to 100 nM. Turning to `Cc1ccc(-n2nc(C(C)(C)C)cc2NC(=O)Nc2ccc(CC3CCN(C(=O)c4ccc(O)nc4)CC3)cc2)cc1` [Compound A333, 1-(5-tert-Butyl-2-p-tolyl-2H-pyrazol-3-yl)-3-{4-[1-(6-hydroxy-pyridine-3-carbonyl)-piperidin-4-ylmethyl]-phenyl}-urea], the IC50 in test [1] was in the range of 10 to 100 nM. Consider `Cc1ccc(-n2nc(C(C)(C)C)cc2NC(=O)Nc2ccc(CC3CC4CCC(C3)N4C(=O)c3cccc(C)n3)cc2)cc1` (centres unmarked) [Compound A1640, 1-(5-tert-Butyl-2-p-tolyl-2H-pyrazol-3-yl)-3-{4-[8-(6-methyl-pyridine-2-carbonyl)-8-aza-bicyclo[3.2.1]oct-3-ylmethyl]-phenyl}-urea], for which the IC50 in test [1] was 10 to 100 nM. Take `COc1ccc(OC(=O)N2CCC(Cc3ccc(NC(=O)Nc4cc(C(C)(C)C)nn4-c4ccc(C)cc4)cc3)CC2)cc1` [Compound A1605, 4-{4-[3-(5-tert-Butyl-2-p-tolyl-2H-pyrazol-3-yl)-ureido]-benzyl}-piperidine-1-carboxylic acid 4-methoxy-phenyl ester]: the IC50 in test [1] fell in the range of 10 to 100 nM.

`Cc1ccc(-n2nc(C(C)(C)C)cc2NC(=O)Nc2ccc(CC3CCN(C(=O)c4ccc5ncsc5c4)CC3)cc2)cc1` [Compound A338, 1-{4-[1-(Benzothiazole-6-carbonyl)-piperidin-4-ylmethyl]-phenyl}-3-(5-tert-butyl-2-p-tolyl-2H-pyrazol-3-yl)-urea]: the IC50 in test [2] lay within 10 to 500 nM. Turning to `COc1ccc(CC(=O)N2CCC(Cc3ccc(NC(=O)Nc4cc(C(C)(C)C)nn4-c4ccc(C)cc4)cc3)CC2)cc1` [Compound A319, 1-(5-tert-Butyl-2-p-tolyl-2H-pyrazol-3-yl)-3-(4-{1-[2-(4-methoxy-phenyl)-acetyl]-piperidin-4-ylmethyl}-phenyl)-urea], the IC50 in test [2] was 10 to 500 nM. For `COc1ccc(OC)c(CC(=O)N2CCC(Cc3cccc(NC(=O)Nc4cc(C(C)(C)C)nn4-c4ccc(C)cc4)c3)CC2)c1` [Compound A1646, 1-(5-tert-Butyl-2-p-tolyl-2H-pyrazol-3-yl)-3-(3-{1-[2-(2,5-dimethoxy-phenyl)-acetyl]-piperidin-4-ylmethyl}-phenyl)-urea], the IC50 in test [2] fell in the range of 10 to 500 nM.

Values taken from patent US7541368B2, “Pyrazoles as inhibitors of tumor necrosis factor” (Aventis Pharmaceuticals Inc., priority 2003, dated 2009).
